Reference: publication PMC7071032, “In Vitro Inhibition of Hsp90 Protein by Benzothiazoloquinazolinequinones Is Enhanced in The Presence of Ascorbate. A Preliminary In Vivo Antiproliferative Study” (Molecules, 2020)
Like-named read-outs stand apart in the source and are kept apart here.

What was measured:
T24 (bladder) cells [1] = assay: MTT reduction assay, T24 cells; type: cell-based; conditions: Homo sapiens, T-24, 48 h incubation, read-out: IC50 ± SEM T24
Protocol: (§1) As positive control, two well-known anticancer drugs, namely TAM and 5-FU, were also tested on these cell lines. […] Regarding 5-FU, it is a broad-spectrum chemotherapeutic drug used to treat a variety of malignancies. Particularly, it has a long history of use against bladder tumors.
(§2) Cell culture conditions were the same as reported elsewhere. Briefly, cell lines were kept in DMEM containing 10% fetal calf serum. In addition, 100 U/mL of penicillin and 100 µg/mL streptomycin from Gibco (Grand Island, NY, USA) were further added. Cell cultures were kept at 37 °C under an atmosphere of 95% air/5% CO2 and 100% humidity. Sodium L-ascorbate, menadione (vitamin K3), TAM, and 5-FU were purchased from Sigma (St. Louis, MO, USA).
(§3) The cytotoxicity of the quinones was assessed by following the reduction of MTT (3-(4,5-dimethylthiazol-2-yl)-2,5-diphenyltetrazolium bromide) to formazan blue and the capability of cancer cells to proliferate, namely a clonogenic assay.
(§4) Cells were seeded into 96-well plates at a density of 10,000 cells/well for 24 h and then incubated for 48 h with or without the quinone derivatives. […] The IC50 values were determined using the GraphPad Prism software (San Diego, CA, USA). Further incubation procedures and optical density reading of colored solutions were performed according to Benites et al..

DU-145 (prostate) cells [2] = assay: MTT reduction assay, DU-145 cells; type: cell-based; conditions: Homo sapiens, DU-145, 48 h, read-out: IC50 ± SEM DU-145
Protocol: as §1, §2, §3, §4

MCF-7 (breast) cells [3] = assay: MTT reduction assay, MCF-7 cells; type: cell-based; conditions: Homo sapiens, MCF7, 48 h incubation, read-out: IC50 ± SEM MCF-7
Protocol: as §1, §2, §3, §4

[4] = system: non-tumor fibroblasts AG 1523; assay: MTT reduction assay, non-tumor fibroblasts; type: cell-based; conditions: Homo sapiens, AG1523, 48 h incubation, read-out: IC50 ± SEM AG 1523
Protocol: as §1, §2, §3, §4

[5] = system: panel of cancer cells (T24, DU-145, MCF-7); assay: MTT reduction assay, panel of cancer cells (means, ranges, selectivity index); type: cell-based, human; conditions: for MSI: mean selective index: IC50 values of fibroblasts (AG 1523)/IC50 values of tumor cells (T24, DU-145, MCF-7); for IC50: Homo sapiens
Protocol: as §1
Such a selective index was calculated as the ratio between IC50 values of healthy cells/IC50 values in cancer cells.
as §4

T24 cells = assay: Clonogenic assay; type: cell-based, human; conditions: for cell growth compared to control conditions (100%), in brackets / number of colony forming units (CFUs): T24 cells; for number of colony forming units (CFUs): 24 h treatment, 10 days growth
Protocol: Indeed, at a dose of 0.25 µM, it decreased from 195 to 72 the number of CFUs. Otherwise, it inhibits the proliferation of T24 cells by 63% as compared to the control untreated cells. […] The percentages of the observed cell growth compared to control conditions (100%) are indicated in brackets. […] Cells were allowed to adhere overnight, and then treated with quinones for 24 h. Afterward, they were washed with warm PBS, given fresh medium, and allowed to grow for 10 days. Clonogenic survival was determined by fixing and staining colonies using crystal violet and further counting their number. The number of colonies calculated under control conditions was set as 100%.

T24 (bladder) cells [6] = system: T24 (bladder) cells; set-up: method as in doi:10.1016/j.tetlet.2015.07.034; conditions: MTT, data from Valderrama et al. ref 16, read-out: IC50 ± SEM T24; cited from earlier work
DU-145 (prostate) cells [7] = system: DU-145 (prostate) cells; set-up: method as in doi:10.1016/j.tetlet.2015.07.034; conditions: read-out: IC50 ± SEM DU-145, MTT, data from Valderrama et al. ref 16; cited from earlier work
MCF-7 (breast) cells [8] = system: MCF-7 (breast) cells; set-up: method as in doi:10.1016/j.tetlet.2015.07.034; conditions: MTT, data from Valderrama et al. ref 16, read-out: IC50 ± SEM MCF-7; cited from earlier work
[9] = read-out: mean IC50 value calculated from the individual IC50 values of the three cancer cell lines
[10] = read-out: IC50 values on the panel of cancer cells (range over cell lines)

Row | IC50 (T24 (bladder) cells [1]) [µM] | IC50 (DU-145 (prostate) cells [2]) [µM] | IC50 (MCF-7 (breast) cells [3]) [µM] | SMILES | IC50 [4] [µM] | MSI: mean selective index [5] | IC50 [5, 9] [µM] | also measured
1 | 10.4 ± 1 | 4.69 ± 0.33 | 11.7 ± 0.65 | COc1ccc2c(c1)SC1=NC3=C(C(=O)c4ccccc4C3=O)C(O)(c3ccco3)N12 (centres unmarked) [Compound 24] | 90.1 ± 1.21 | 10.1 |  | 
2 |  |  |  | O=c1[nH]cc(F)c(=O)[nH]1 [5-Fluorouracil, 5-fluorouracil, reference compound] |  |  | 7.8 | 
3 | 8.42 ± 1.27 | 9.04 ± 0.69 | 6.84 ± 0.79 | CCCCCCCC1(O)C2=C(N=C3Sc4ccccc4N31)C(=O)c1ccccc1C2=O (centres unmarked) [Compound 14] | 7.28 ± 0.39 | 0.90 |  | 
4 |  |  |  | CCCC1(O)C2=C(N=C3Sc4cc(C)ccc4N31)C(=O)c1ccccc1C2=O (centres unmarked) [Compound 16] | 3.46 ± 0.08 | 2.62 | 1.1 to 1.61 | IC50 [5, 10]: 0.11 to 1.77 µM; cell growth compared to control conditions (100%), in brackets (T24 cells; 0.025 µM): 101%; number of colony forming units (CFUs) (T24 cells; 0.025 µM): 204 ± 19 CFUs; cell growth compared to control conditions (100%), in brackets (T24 cells; 0.125 µM): 107%; number of colony forming units (CFUs) (T24 cells; 0.125 µM): 216 ± 29 CFUs; cell growth compared to control conditions (100%), in brackets (T24 cells; 0.25 µM): 94%; number of colony forming units (CFUs) (T24 cells; 0.25 µM): 189 ± 12 CFUs; cell growth compared to control conditions (100%), in brackets (T24 cells; 1.25 µM): 39%; number of colony forming units (CFUs) (T24 cells; 1.25 µM): 79 ± 9 CFUs; cell growth compared to control conditions (100%), in brackets (T24 cells; 2.5 µM): 29%; number of colony forming units (CFUs) (T24 cells; 2.5 µM): 58 ± 12 CFUs; cell growth compared to control conditions (100%), in brackets (T24 cells; 5.0 µM): 11%; number of colony forming units (CFUs) (T24 cells; 5.0 µM): 23 ± 15 CFUs; IC50 (T24 (bladder) cells [6]): 1.36 ± 0.15 µM; IC50 (DU-145 (prostate) cells [7]): 0.85 ± 0.1 µM; IC50 (MCF-7 (breast) cells [8]): 1.77 ± 0.26 µM
5 | 5.6 ± 0.29 | 7.55 ± 0.69 | 7.12 ± 0.65 | CCCCCCCC1(O)C2=C(N=C3Sc4cc(C)ccc4N31)C(=O)c1ccccc1C2=O (centres unmarked) [Compound 18] | 6.02 ± 0.29 | 0.89 |  | 
6 | 4.65 ± 0.43 | 9.59 ± 0.32 | 6.83 ± 1.29 | CC1(O)C2=C(N=C3Sc4ccccc4N31)C(=O)c1ccccc1C2=O (centres unmarked) [Compound 11] | 10.7 ± 0.57 | 1.52 |  | 
7 | 8.72 ± 0.41 | 7.85 ± 0.6 | 7.32 ± 0.36 | O=C1C2=C(C(=O)c3ccccc31)C(O)(c1cccs1)N1C(=N2)Sc2ccccc21 (centres unmarked) [Compound 25] | 12.8 ± 0.31 | 1.60 |  | 
8 |  |  |  | COc1ccc2c(c1)SC1=NC3=C(C(=O)c4ccccc4C3=O)C(C)(O)N12 (centres unmarked) [Compound 19] | 6.4 ± 0.46 | 3.97 | 1.1 to 1.61 | IC50 [5, 10]: 0.11 to 1.77 µM; inhibition at 0.25 µM (T24 cells; Homo sapiens, T-24, clonogenic assay, 0.25 µM, read-out: inhibition of the proliferation of T24 cells as compared to control untreated cells): 28%; cell growth compared to control conditions (100%), in brackets (T24 cells; 0.025 µM): 102%; number of colony forming units (CFUs) (T24 cells; 0.025 µM): 195 ± 16 CFUs; cell growth compared to control conditions (100%), in brackets (T24 cells; 0.125 µM): 96%; number of colony forming units (CFUs) (T24 cells; 0.125 µM): 183 ± 21 CFUs; cell growth compared to control conditions (100%), in brackets (T24 cells; 0.25 µM): 72%; number of colony forming units (CFUs) (T24 cells; 0.25 µM): 138 ± 18 CFUs; cell growth compared to control conditions (100%), in brackets (T24 cells; 1.25 µM): 36%; number of colony forming units (CFUs) (T24 cells; 1.25 µM): 68 ± 12 CFUs; cell growth compared to control conditions (100%), in brackets (T24 cells; 2.5 µM): 16%; number of colony forming units (CFUs) (T24 cells; 2.5 µM): 30 ± 16 CFUs; cell growth compared to control conditions (100%), in brackets (T24 cells; 5.0 µM): 18%; number of colony forming units (CFUs) (T24 cells; 5.0 µM): 35 ± 11 CFUs; IC50 (T24 (bladder) cells [6]): 1.32 ± 0.11 µM; IC50 (DU-145 (prostate) cells [7]): 0.79 ± 0.11 µM; IC50 (MCF-7 (breast) cells [8]): 2.72 ± 0.18 µM
9 | 7.09 ± 0.14 | 7.43 ± 0.28 | 4.63 ± 0.3 | CCCCCC1(O)C2=C(N=C3Sc4cc(OC)ccc4N31)C(=O)c1ccccc1C2=O (centres unmarked) [Compound 21] | 11.3 ± 1.1 | 1.78 |  | 
10 |  |  |  | CCCC1(O)C2=C(N=C3Sc4ccccc4N31)C(=O)c1ccccc1C2=O (centres unmarked) [Compound 12] | 8.82 ± 0.27 | 1.28 |  | IC50 (T24 (bladder) cells [6]): 4.86 ± 0.5 µM; IC50 (DU-145 (prostate) cells [7]): 11.6 ± 2.05 µM; IC50 (MCF-7 (breast) cells [8]): 4.25 ± 0.5 µM
11 | 6.85 ± 0.54 | 7.99 ± 0.17 | 5.83 ± 0.25 | CCCCCC1(O)C2=C(N=C3Sc4ccccc4N31)C(=O)c1ccccc1C2=O (centres unmarked) [Compound 13] | 8.55 ± 0.35 | 1.24 |  | 
12 | 13.4 ± 2.37 | 10.8 ± 1.01 | 7.46 ± 0.53 | O=C1C2=C(C(=O)c3ccccc31)C(O)(c1cccs1)N1C(=N2)Sc2cc(F)ccc21 (centres unmarked) [Compound 26] | 19.8 ± 0.83 | 1.88 | 10.5 to 12.6 | 
13 | 5.95 ± 0.45 | 6.62 ± 0.19 | 3.52 ± 0.32 | CCCCCCCC1(O)C2=C(N=C3Sc4cc(OC)ccc4N31)C(=O)c1ccccc1C2=O (centres unmarked) [Compound 22] | 5.97 ± 0.24 | 1.11 |  | 
14 | 1.89 ± 0.15 | 1.13 ± 0.05 | 1.67 ± 0.12 | CCCC1(O)C2=C(N=C3Sc4cc(OC)ccc4N31)C(=O)c1ccccc1C2=O (centres unmarked) [Compound 20] | 4.99 ± 0.59 | 3.17 | 1.1 to 1.61 | IC50 [5, 10]: 0.11 to 1.77 µM; cell growth compared to control conditions (100%), in brackets (T24 cells; 0.025 µM): 96%; number of colony forming units (CFUs) (T24 cells; 0.025 µM): 204 ± 17 CFUs; cell growth compared to control conditions (100%), in brackets (T24 cells; 0.125 µM): 100%; number of colony forming units (CFUs) (T24 cells; 0.125 µM): 214 ± 25 CFUs; cell growth compared to control conditions (100%), in brackets (T24 cells; 0.25 µM): 106%; number of colony forming units (CFUs) (T24 cells; 0.25 µM): 225 ± 19 CFUs; cell growth compared to control conditions (100%), in brackets (T24 cells; 1.25 µM): 55%; number of colony forming units (CFUs) (T24 cells; 1.25 µM): 118 ± 22 CFUs; cell growth compared to control conditions (100%), in brackets (T24 cells; 2.5 µM): 42%; number of colony forming units (CFUs) (T24 cells; 2.5 µM): 89 ± 10 CFUs; cell growth compared to control conditions (100%), in brackets (T24 cells; 5.0 µM): 22%; number of colony forming units (CFUs) (T24 cells; 5.0 µM): 46 ± 7 CFUs
15 | 9.29 ± 0.77 | 19.9 ± 0.5 | 8.62 ± 0.72 | O=C1C2=C(C(=O)c3ccccc31)C(O)(c1ccco1)N1C(=N2)Sc2ccccc21 (centres unmarked) [Compound 23] | 21.7 ± 0.27 | 1.72 | 10.5 to 12.6 | 
